We go through 5 compounds from publication PMC11605156, “Triterpenoids from Ganoderma lucidum inhibit cytochrome P450 enzymes interfering with the metabolic process of specific clinical drugs” (Frontiers in Pharmacology, 2024).

One data set deals with CYP2C9 (Homo sapiens, UniProt P11712). As to the kind of experiment: CYP2C9 inhibition, probe/drug metabolism in human liver microsomes. The following applies: human, human liver microsomes, pH 7.4, probe diclofenac 4 μM, Residual activity (%) CYP2C9, HLM 0.5 mg/mL, diclofenac 4 μM, 30 min. The method, then: (§1) The total volume of the in vitro metabolic incubation system is 200 μL. The probe substrate concentration in the system is shown in Supplementary Table S1. […] The reaction sample was preheated in a constant temperature mixer at 37°C. Then NADP^+ was added to the system to initiate the reaction. The reaction time is 30 min, and 100 μL acetonitrile will be added on time to quickly terminate the reaction, followed by centrifugation at 4°C and 20,000 g for 20 min. The supernatant was analyzed using liquid chromatography tandem mass spectrometry (LC-MS/MS), and the activity of CYP enzymes was evaluated by the generation of probe metabolites. The mass spectrometry information of probe substrates is shown in Supplementary Table S3.
(§2) The isolated triterpenoids (1–66) were used to establish a compounds library. The inhibitory effects of 66 triterpenoids from G. lucidum on seven subtypes of CYP enzymes (CYP1A2, 2A6, 2D6, 2B6, 2C9, 2C19, 3A4) were evaluated followed the above-mentioned experimental procedures.
(§3) For 16 clinical drugs metabolized by CYP enzymes, potential DDI studies were conducted on triterpenoids (6, 25) of G. lucidum, and IC50 values were measured.
(§4) Clinical drugs: Phenacetin, melatonin, clozapine and riluzole are metabolized by CYP1A2. Bupropion, artemisinin, efavirenz and sertraline are metabolized by CYP2B6. Diclofenac, valsartan, glimepiride and glibenclamide are metabolized by CYP2C9. Midazolam, imatinib, simvastatin and diltiazem are metabolized by CYP3A4.
(§5) Table S1. The information of probes for CYPs activity assay
(§6) Table S2. Information of clinical drugs
(In general: Liver microsomes are a subcellular fraction often used to study metabolism.)

For another data set, the target named is T1, CYP2A6 (Homo sapiens, UniProt P11509).
T1 sequence (P11509 1-494): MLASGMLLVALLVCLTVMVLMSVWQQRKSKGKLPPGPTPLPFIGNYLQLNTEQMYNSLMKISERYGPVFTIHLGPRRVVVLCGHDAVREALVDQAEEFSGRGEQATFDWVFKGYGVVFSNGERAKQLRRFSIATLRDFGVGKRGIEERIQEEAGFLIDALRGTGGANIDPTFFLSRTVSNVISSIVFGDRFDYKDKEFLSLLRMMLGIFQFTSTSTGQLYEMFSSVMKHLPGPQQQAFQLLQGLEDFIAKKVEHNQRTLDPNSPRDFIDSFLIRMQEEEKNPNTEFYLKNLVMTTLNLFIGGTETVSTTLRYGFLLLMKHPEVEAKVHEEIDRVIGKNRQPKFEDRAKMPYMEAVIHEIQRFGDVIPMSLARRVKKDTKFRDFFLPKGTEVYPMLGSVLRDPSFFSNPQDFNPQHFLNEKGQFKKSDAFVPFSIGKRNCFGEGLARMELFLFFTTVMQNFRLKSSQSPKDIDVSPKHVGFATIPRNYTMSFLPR
As to the kind of experiment: CYP2A6 inhibition, coumarin probe in human liver microsomes. The following applies: human, human liver microsomes, pH 7.4, probe coumarin 2 μM, Residual activity (%) CYP2A6, HLM 0.5 mg/mL. As for the experimental part: as §1, §2, §5

The next data set addresses T2, CYP2B6 (Homo sapiens, UniProt P20813).
T2 sequence (P20813 1-491): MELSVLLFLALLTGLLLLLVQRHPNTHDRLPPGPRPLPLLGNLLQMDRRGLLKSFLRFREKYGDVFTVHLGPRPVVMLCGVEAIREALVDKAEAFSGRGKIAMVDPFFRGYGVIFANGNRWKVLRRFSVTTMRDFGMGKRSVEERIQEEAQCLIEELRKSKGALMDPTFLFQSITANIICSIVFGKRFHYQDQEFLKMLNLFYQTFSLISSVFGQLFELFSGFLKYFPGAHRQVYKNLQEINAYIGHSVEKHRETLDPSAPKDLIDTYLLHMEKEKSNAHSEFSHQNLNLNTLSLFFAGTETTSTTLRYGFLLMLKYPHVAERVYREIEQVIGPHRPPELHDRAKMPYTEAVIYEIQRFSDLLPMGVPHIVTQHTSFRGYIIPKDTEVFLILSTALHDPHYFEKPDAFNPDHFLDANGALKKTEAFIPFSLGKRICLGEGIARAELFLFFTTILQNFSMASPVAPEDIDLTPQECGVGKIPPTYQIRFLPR
Briefly: CYP2B6 inhibition, probe/drug metabolism in human liver microsomes. The following applies: human, human liver microsomes, pH 7.4, probe bupropion 75 μM, Residual activity (%) CYP2B6, HLM 0.5 mg/mL, bupropion 75 μM, 30 min. As for the experimental part: as §1, §2, §3, §4, §5, §6

The target in a further data set is CYP2C19 (Homo sapiens, UniProt P33261). As to the kind of experiment: CYP2C19 inhibition, S-mephenytoin probe in human liver microsomes. As to conditions: human, human liver microsomes, pH 7.4, probe S-mephenytoin 50 μM, Residual activity (%) CYP2C19, HLM 0.5 mg/mL, S-mephenytoin 50 μM, 30 min. As for the experimental part:
as §1, §2, §5

A further data set addresses CYP2D6 (Homo sapiens, UniProt P10635). Briefly: CYP2D6 inhibition, dextromethorphan probe in human liver microsomes. The following applies: human, human liver microsomes, pH 7.4, probe dextromethorphan 5 μM, Residual activity (%) CYP2D6, HLM 0.5 mg/mL. The method, then:
as §1, §2, §5

Another data set deals with T3, CYP1A2 (Homo sapiens, UniProt P05177).
T3 sequence (P05177 1-516): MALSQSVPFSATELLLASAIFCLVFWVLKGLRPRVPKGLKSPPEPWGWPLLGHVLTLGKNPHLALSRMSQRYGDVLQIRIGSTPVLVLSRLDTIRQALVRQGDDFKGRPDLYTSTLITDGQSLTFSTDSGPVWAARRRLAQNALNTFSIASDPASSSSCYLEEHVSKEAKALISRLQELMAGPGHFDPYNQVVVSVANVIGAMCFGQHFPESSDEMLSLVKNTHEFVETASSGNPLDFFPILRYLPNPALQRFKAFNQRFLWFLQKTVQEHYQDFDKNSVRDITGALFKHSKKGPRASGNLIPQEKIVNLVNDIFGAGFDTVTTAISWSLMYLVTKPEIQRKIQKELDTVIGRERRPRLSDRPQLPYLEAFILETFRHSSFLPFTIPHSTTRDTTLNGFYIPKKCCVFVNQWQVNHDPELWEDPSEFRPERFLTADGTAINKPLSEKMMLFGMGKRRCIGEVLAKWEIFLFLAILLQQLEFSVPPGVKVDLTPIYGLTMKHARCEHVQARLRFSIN
As to the kind of experiment: CYP1A2 inhibition, probe/drug metabolism in human liver microsomes (LC-MS/MS). As to conditions: for activity at 30 min: human, human liver microsomes, pH 7.4, probe phenacetin 40 μM, Residual activity (%) CYP1A2, HLM 0.5 mg/mL. As for the experimental part:
as §1, §2, §3, §4, §5, §6

The target of a further data set is CYP3A4 (Homo sapiens, UniProt P08684). As to the kind of experiment: CYP3A4 inhibition, probe/drug metabolism in human liver microsomes. The following applies: human, human liver microsomes, pH 7.4, probe midazolam 5 μM, Residual activity (%) CYP3A4, HLM 0.5 mg/mL, midazolam 5 μM, 30 min. As for the experimental part: as §1, §2, §3, §4, §5, §6
Setting [1] is: IC50 against CYP 1A2, substrate phenacetin 40 μM, HLM.

CYP2C9, sequence (P11712 whole entry): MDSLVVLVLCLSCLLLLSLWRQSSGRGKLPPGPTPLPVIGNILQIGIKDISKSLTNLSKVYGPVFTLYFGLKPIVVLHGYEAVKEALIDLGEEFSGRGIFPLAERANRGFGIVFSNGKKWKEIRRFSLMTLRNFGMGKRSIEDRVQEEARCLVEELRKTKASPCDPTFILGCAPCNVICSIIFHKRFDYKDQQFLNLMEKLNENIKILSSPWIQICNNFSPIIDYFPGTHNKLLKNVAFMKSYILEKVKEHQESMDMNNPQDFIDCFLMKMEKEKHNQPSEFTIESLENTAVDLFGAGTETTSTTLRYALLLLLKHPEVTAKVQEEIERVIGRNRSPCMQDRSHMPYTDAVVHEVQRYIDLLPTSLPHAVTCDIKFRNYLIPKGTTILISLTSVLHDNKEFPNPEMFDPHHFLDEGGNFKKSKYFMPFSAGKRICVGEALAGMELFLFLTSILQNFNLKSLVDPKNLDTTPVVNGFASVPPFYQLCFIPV
CYP3A4, sequence (P08684 whole entry): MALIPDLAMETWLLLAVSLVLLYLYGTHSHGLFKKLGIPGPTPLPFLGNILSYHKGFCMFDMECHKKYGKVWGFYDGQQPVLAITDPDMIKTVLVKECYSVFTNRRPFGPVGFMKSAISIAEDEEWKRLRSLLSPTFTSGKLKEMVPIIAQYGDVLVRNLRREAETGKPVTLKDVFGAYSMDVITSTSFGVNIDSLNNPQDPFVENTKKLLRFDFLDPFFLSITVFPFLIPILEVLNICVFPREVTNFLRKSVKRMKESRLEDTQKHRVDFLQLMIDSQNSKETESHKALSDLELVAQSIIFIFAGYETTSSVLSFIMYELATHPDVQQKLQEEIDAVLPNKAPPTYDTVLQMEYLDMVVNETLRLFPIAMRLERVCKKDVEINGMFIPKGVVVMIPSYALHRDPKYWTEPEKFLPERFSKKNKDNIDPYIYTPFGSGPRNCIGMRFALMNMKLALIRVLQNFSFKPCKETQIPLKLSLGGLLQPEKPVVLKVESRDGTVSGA
CYP2C19, sequence (P33261 whole entry): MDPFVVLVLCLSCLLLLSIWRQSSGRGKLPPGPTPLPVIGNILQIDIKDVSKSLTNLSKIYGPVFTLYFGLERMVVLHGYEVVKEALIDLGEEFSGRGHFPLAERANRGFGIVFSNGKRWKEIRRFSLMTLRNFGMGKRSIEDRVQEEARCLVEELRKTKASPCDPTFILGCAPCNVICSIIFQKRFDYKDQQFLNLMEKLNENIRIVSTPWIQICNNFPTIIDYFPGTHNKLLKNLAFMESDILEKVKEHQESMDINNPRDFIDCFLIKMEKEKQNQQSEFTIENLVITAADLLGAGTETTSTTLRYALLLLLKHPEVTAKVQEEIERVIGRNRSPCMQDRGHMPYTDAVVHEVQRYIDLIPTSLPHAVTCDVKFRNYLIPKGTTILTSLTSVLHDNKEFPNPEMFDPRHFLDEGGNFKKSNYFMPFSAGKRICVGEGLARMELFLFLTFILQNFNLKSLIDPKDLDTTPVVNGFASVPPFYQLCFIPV
CYP2D6, sequence (P10635 whole entry): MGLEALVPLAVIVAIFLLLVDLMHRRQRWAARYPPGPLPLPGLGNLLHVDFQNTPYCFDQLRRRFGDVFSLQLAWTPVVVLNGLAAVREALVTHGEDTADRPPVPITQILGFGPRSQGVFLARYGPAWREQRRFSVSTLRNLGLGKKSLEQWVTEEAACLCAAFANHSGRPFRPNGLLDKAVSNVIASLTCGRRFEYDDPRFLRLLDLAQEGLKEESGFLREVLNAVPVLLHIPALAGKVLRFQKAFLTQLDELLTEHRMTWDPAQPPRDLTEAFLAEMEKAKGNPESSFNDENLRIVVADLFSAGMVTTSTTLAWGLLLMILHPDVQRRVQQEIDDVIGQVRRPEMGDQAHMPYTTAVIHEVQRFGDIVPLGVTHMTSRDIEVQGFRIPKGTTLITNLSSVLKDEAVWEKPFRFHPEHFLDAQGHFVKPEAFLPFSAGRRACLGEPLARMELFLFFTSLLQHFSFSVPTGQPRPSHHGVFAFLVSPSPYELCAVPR

The term IC50 denotes the concentration needed to halve the response being measured. For the compound `CC(CC(=O)CC(C)C1CC(O)C2(C)C3=C(C(=O)CC12C)C1(C)CCC(O)C(C)(CO)C1CC3=O)C(=O)O` (stereo not shown) [Compound 4], the activity at 30 min at CYP2C9 is 86.6 ± 1.3%; on CYP2A6, 81.24 ± 0.65%; at CYP2B6, 97.5 ± 4.16%; at CYP2C19 it was 57.82 ± 0.056%; at CYP2D6 it was 76.9 ± 6.89%; at CYP1A2 (phenacetin 40 μM, 30 min), 29.1 ± 0.38%. On CYP3A4, the activity at 30 min came to 67.6 ± 2.68%. The IC50 against CYP1A2 (setting [1]) was found to be 11.6 ± 1.02 µM.
As to `CC(=CC(=O)CC(C)C(=O)O)C1CC(=O)C2(C)C3=C(C(=O)C(O)C12C)C1(C)CCC(=O)C(C)(CO)C1CC3O` (stereo not shown) [Compound 6, ganoderica F], the activity at 30 min at CYP2C9 was determined as 90.5 ± 3.9%; at CYP2A6, 75.3 ± 1.29%; on CYP2B6, 84.6 ± 5.76%; at CYP2C19, 58.5 ± 8.25%; on CYP2D6, 66.7 ± 6.29%; on CYP1A2 (phenacetin 40 μM, 30 min), 28 ± 1.5%. For the same compound, the activity at 30 min at CYP3A4 was 72.57 ± 0.19%. Moreover, the IC50 was 9.62 ± 2.03 µM at CYP1A2 (setting [1]); 12.9 ± 1.11 µM at CYP1A2 (IC50 against metabolism of clozapine mediated by CYP1A2, substrate clozapine 10 μM, 20 min); 19 ± 1.68 µM at CYP1A2 (IC50 against metabolism of melatonin mediated by CYP1A2, substrate melatonin 5 μM, 30 min); 14.8 ± 2.15 µM at CYP1A2 (IC50 against metabolism of riluzole mediated by CYP1A2, substrate riluzole 5 μM, 60 min); 9.62 to 19 µM at CYP1A2 (IC50 values, metabolism of four drugs mediated by CYP 1A2, range over phenacetin, riluzole, clozapine, melatonin).
With `CC(=O)OC1C(=O)C2=C(C(O)CC3C2(C)CCC(O)C3(C)C)C2(C)C(=O)CC(C(C)=CC(=O)CC(C)C(=O)O)C12C` (stereo not shown) [Compound 7], the activity at 30 min at CYP2C9 turned out to be 90 ± 1.41%; on CYP2A6, 88.05 ± 0.74%; on CYP2B6 it was 90.6 ± 2.12%; on CYP2C19 it was 74.81 ± 0.08%; at CYP2D6 it was 104 ± 4.79%; on CYP1A2 (phenacetin 40 μM, 30 min), 32.5 ± 1%. For the same compound, the activity at 30 min on CYP3A4 was 94.6 ± 1.15%. Moreover, at CYP1A2 (setting [1]), the IC50 is 12.8 ± 1.47 µM.
As for `CC(CC(=O)CC(C)C1CC(=O)C2(C)C3=C(C(=O)CC12C)C1(C)CCC(=O)C(C)(CO)C1CC3O)C(=O)O` (stereo not shown) [Compound 8], the activity at 30 min at CYP2C9 amounted to 94.8 ± 5.64%; on CYP2A6, 79.1 ± 0.81%; at CYP2B6 it was 91.6 ± 8.64%; on CYP2C19, 68.6 ± 7.25%; at CYP2D6, 76.9 ± 0.9%; on CYP1A2 (phenacetin 40 μM, 30 min), 30.2 ± 3.05%. In addition, the activity at 30 min at CYP3A4 was determined as 90.8 ± 3.82%. At CYP1A2 (setting [1]), the IC50 came to 11.3 ± 0.31 µM.
For `CC(=O)OC1C(=O)C2=C(C(=O)CC3C(C)(C)C(=O)CCC23C)C2(C)C(=O)CC(C(C)CC(=O)CC(C)C(=O)O)C12C` (stereo not shown) [Compound 9], the activity at 30 min stood at 77 ± 5.67% at CYP2C9; 91.5 ± 2.1% at CYP2A6; 94.3 ± 1.83% on CYP2B6; 105 ± 6.46% on CYP2C19; 94 ± 5.67% at CYP2D6; 93.7 ± 4.04% on CYP3A4. For the same compound, the “Residual activity (%) CYP1A2” value at CYP1A2 (HLM 0.5 mg/mL, phenacetin 40 μM, 30 min) was found to be 89.44±0.96%.
